As usually defined, the AC50 is the midpoint of the concentration-response curve, whichever way the signal moves. Broadly, the EC50 is the concentration needed to bring the measured effect to its halfway point. By CC50 is commonly meant the concentration at which the toxic effect on the cells reaches its halfway point.

The values below come from ChEMBL document CHEMBL1201862, “PubChem BioAssay data set” (2004).

Molecules are shown by their SMILES. Activity calls are given as the source filed them. A value given as a limit tells only on which side of the number the result lay.

In assay [1] the target is Phosphoethanolamine/phosphocholine phosphatase (Homo sapiens, UniProt Q8TCT1). Kind of assay: SAR assay for compounds that inhibit PHOSPHO1. [Related pubchem assays (depositor defined):AID1545, AID1565, AID1574].
Chain of Phosphoethanolamine/phosphocholine phosphatase (Q8TCT1 whole entry): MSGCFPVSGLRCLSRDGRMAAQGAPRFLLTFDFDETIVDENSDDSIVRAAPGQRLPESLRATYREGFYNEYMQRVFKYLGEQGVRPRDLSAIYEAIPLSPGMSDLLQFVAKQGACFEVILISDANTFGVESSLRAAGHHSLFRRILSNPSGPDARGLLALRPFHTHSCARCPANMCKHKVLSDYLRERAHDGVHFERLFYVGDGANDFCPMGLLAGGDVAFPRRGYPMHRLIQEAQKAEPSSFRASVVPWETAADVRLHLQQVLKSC
The next assay has as its target Cytochrome P450 2D6 (Homo sapiens, UniProt P10635).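 Note: CYP2D6 member of a cytochrome P450 panel assay.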
Assay [2] in a line: NIH-3T3 fibroblast cytotoxicity, dose response, cytotoxicity control, cell-based, fluorescence, Alamar Blue, secondary assay (AID 2327).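 Note: NIH-3T3 mouse fibroblasts cultured with fluconazole at 8 µg/mL.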 The format is functional. On the technique in general: Resazurin is reduced to fluorescent resorufin, in cell work by metabolically active cells.
A short description of assay [3]: C. albicans growth with fluconazole, confirmation, fluorescence, retest (AID 2467). The format is functional, cell-based.
Assay [4] addresses T1, Serine/threonine-protein phosphatase (Candida dubliniensis (strain CD36 / CBS 7987 / NCPF 3949 / NRRLY-17841) (Yeast), UniProt B9W6M3).
T1 sequence (B9W6M3 whole entry): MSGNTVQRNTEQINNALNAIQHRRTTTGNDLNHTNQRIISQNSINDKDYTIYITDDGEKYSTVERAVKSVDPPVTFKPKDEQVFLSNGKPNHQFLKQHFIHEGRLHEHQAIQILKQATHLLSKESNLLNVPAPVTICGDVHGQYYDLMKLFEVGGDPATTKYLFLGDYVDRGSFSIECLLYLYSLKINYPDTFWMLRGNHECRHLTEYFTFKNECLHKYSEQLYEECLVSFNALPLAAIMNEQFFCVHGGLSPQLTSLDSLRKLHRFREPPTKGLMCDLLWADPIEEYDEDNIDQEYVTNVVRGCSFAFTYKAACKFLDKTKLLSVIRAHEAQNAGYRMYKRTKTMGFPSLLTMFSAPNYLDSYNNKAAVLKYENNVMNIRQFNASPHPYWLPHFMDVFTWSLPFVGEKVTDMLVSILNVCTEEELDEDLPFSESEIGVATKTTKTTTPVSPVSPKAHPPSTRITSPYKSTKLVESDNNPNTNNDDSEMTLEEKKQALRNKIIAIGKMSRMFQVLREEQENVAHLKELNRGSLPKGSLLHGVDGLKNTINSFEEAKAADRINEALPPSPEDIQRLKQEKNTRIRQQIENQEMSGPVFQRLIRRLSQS
Kind of assay: calcineurin pathway inhibitors in yeast reporter, dose response, S. cerevisiae, CDRE-lacZ, luminescence, secondary (AID 2388).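 Note: yeast reporter cells carrying a calcineurin-responsive lacZ construct stimulated with calcium chloride; luminescent beta-galactosidase reporter signal in whole cells rather than isolated phosphatase activity; potency for inhibition where a drop in reporter signal means calcineurin blockade.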 It is filed as functional, cell-based.

Assay [5] deals with NACHT, LRR and PYD domains-containing protein 3 (Homo sapiens, UniProt Q96P20). Kind of assay: NALP3 inhibitors in yeast, dose response, luminescent (AID 488799). It is filed as functional.
Chain of NACHT, LRR and PYD domains-containing protein 3 (Q96P20 whole entry, the tested form may be a part): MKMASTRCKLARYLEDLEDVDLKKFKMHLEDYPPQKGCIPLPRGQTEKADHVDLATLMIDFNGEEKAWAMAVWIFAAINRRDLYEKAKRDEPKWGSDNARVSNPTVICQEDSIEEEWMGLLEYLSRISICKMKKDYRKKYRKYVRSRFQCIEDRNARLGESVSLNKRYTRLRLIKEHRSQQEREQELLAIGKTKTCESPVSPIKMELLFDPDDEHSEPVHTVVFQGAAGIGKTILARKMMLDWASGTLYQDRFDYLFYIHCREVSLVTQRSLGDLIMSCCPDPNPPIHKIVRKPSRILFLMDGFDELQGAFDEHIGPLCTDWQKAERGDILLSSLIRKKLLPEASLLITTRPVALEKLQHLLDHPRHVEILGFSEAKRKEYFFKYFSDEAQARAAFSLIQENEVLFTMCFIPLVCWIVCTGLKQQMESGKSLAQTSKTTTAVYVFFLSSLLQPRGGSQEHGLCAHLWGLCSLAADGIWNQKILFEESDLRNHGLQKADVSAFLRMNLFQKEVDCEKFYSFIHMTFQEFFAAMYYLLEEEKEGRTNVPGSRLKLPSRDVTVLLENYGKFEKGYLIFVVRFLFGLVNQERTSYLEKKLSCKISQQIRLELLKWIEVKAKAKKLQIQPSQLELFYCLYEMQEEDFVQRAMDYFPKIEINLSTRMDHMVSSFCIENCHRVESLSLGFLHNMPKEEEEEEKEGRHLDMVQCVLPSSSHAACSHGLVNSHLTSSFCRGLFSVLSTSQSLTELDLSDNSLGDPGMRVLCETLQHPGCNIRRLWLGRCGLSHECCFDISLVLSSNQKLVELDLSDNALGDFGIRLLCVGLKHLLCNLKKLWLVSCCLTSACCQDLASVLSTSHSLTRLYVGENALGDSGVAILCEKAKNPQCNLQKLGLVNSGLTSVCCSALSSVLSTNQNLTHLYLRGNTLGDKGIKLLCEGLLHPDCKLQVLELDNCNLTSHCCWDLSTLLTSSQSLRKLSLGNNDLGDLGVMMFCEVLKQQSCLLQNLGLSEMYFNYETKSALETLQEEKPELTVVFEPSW
Assay [6] is described as follows: THP-1 cell cytotoxicity, dose response, cytotoxicity control for non-replicating M. tuberculosis project (AID 489025). It is filed as functional.
Assay [7] can be described thus: HepG2 cell cytotoxicity, dose response, cytotoxicity control for non-replicating M. tuberculosis project (AID 489018). The format is functional. The conditions noted are these: Mycobacterium tuberculosis.
Assay [8] can be described thus: Vero E6 cell cytotoxicity, dose response, cytotoxicity control for non-replicating M. tuberculosis project, secondary assay (AID 492998). The format is functional, VeroE6. The conditions noted are these: Vero C1008.
A further assay is described as follows: cells. The format is functional.
Assay [9] deals with ATP-dependent molecular chaperone HSP82 (Candida albicans (strain WO-1) (Yeast), UniProt C4YTQ8). Put plainly: loss of DOC-induced GRE-beta-galactosidase reporter signal, dose response, Hsp90 inhibitor project, S. cerevisiae, luminescence (AID 2400).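 Note: beta-galactosidase luminescence from glucocorticoid response element reporter as proxy for Hsp90 function; inhibitor potency where signal loss means Hsp90 inhibition.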 The format is functional, cell-based.
Chain of ATP-dependent molecular chaperone HSP82 (C4YTQ8 whole entry): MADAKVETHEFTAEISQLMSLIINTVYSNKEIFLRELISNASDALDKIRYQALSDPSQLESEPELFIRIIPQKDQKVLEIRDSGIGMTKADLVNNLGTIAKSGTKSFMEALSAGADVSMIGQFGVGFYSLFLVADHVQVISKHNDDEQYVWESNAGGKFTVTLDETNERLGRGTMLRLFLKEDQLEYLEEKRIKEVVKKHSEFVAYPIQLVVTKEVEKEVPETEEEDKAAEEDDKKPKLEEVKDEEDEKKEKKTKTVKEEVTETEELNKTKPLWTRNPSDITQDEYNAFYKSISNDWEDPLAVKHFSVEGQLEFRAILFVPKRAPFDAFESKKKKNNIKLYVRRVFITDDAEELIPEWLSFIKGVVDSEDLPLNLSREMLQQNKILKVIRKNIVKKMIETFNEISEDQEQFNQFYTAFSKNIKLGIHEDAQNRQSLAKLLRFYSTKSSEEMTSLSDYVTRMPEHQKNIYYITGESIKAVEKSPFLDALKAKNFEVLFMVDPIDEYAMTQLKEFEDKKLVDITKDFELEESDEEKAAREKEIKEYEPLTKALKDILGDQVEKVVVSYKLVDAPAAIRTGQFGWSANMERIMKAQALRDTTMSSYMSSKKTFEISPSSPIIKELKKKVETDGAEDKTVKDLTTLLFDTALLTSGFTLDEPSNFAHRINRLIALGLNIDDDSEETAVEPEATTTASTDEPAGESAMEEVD
Assay [10] has as its target Potassium voltage-gated channel subfamily KQT member 2 (Rattus norvegicus, UniProt O88943). Put plainly: retigabine-insensitive KCNQ2 potentiators, concentration-response, dose response, cell-based, retigabine-insensitive compounds (AID 2654). The format is functional.
Assay [11] has as its target T2, Polyadenylate-binding protein 1 (Homo sapiens, UniProt P11940). Put plainly: PABP1 MLLE–PAM2 interaction inhibitors, dose response, miRNA deadenylation inhibitor project, biochemical, fluorescence polarization, Cy5-PAM2 peptide, secondary (AID 602260). The format is functional. The following applies: read-out: IC50_Mean. For orientation: Fluorescence polarisation rises when a labelled molecule tumbles more slowly, as on binding a larger partner.

Assay [12] deals with T2, Polyadenylate-binding protein 1. Kind of assay: PABP1 MLLE–PAM2 binding inhibitor potency, dose response, biochemical, fluorescence polarization, FITC-PAM2 peptide (AID 602259). The format is functional. The conditions noted are these: read-out: IC50_Mean.
The test system of assay [13] is BJ. Kind of assay: cytotoxicity toward BJ-TERT fibroblasts, dose response, cell-based, RAS-independent, luminescence (AID 1933). The following applies: Homo sapiens. It is filed as functional.
Assay [14] concerns BJ. Kind of assay: cells. The format is functional, cell-based. The following applies: Homo sapiens.
In a further assay the test system is J774.A1. Kind of assay: Confirmation of image-based Screening Assay for Inhibitors of Phagocytosis. [Related pubchem assays (depositor defined):AID1029, AID1643]. The format is functional, cell-based. The following applies: Mus musculus.
Assay [15] has as its system BJ. Kind of assay: cytotoxicity toward BJ-TERT-LT-ST fibroblasts, dose response, cell-based, RAS-independent, luminescence (AID 1935).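 Note: BJ fibroblasts immortalized with TERT plus LT and ST oncogenes.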 The format is functional. The conditions noted are these: Homo sapiens.
A short description of assay [16]: cytotoxicity toward DRD oncogenic fibroblasts, dose response, cell-based, non-viral oncogenic, luminescence (AID 1934). The format is functional. The conditions noted are these: Homo sapiens.
A short description of assay [17]: cytotoxicity in HEK-293T cells, dose response, cytotoxicity control for TCR NF-kB inhibitor project, luminescence, T-cell screen hits (AID 489026).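 Note: cells exposed to compound about 14 hours before the viability readout.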 The format is functional, cell-based.

T2 sequence (P11940 whole entry): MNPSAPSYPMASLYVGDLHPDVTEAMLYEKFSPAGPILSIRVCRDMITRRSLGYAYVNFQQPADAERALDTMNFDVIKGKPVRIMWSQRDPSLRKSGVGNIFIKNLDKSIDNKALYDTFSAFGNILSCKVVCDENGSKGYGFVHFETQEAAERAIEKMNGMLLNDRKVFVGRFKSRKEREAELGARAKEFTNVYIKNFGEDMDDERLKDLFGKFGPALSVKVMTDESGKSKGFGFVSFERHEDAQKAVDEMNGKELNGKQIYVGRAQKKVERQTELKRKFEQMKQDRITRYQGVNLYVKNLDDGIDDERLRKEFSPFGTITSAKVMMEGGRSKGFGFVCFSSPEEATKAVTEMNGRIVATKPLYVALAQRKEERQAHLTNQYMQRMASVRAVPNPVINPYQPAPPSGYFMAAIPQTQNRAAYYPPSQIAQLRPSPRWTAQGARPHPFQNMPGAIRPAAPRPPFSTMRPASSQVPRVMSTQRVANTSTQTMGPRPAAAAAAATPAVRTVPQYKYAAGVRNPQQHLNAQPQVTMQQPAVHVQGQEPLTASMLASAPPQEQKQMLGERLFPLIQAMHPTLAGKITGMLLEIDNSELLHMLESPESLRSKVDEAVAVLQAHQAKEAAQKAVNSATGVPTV
Chain of Potassium voltage-gated channel subfamily KQT member 2 (O88943 whole entry): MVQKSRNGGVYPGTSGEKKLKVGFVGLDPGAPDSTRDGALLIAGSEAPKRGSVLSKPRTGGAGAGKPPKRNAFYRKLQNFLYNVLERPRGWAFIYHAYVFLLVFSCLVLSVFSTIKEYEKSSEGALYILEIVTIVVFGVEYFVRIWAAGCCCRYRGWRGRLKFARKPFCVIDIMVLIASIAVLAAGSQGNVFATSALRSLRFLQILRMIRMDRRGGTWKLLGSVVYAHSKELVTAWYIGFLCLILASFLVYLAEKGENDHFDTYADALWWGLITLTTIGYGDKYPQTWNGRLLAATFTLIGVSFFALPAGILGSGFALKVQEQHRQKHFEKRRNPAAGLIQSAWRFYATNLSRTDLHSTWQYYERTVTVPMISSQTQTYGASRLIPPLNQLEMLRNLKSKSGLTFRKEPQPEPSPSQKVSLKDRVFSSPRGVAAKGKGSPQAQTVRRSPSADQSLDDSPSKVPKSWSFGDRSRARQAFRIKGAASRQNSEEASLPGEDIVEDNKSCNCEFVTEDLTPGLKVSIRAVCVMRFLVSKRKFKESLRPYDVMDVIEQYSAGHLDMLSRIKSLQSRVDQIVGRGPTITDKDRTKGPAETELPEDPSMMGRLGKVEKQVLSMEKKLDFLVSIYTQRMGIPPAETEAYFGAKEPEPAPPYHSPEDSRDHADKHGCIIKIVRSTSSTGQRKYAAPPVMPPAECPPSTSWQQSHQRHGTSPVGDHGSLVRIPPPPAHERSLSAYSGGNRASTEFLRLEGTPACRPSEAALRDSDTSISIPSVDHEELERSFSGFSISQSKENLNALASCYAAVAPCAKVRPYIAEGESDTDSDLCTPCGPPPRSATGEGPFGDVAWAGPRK
Chain of Cytochrome P450 2D6 (P10635 whole entry): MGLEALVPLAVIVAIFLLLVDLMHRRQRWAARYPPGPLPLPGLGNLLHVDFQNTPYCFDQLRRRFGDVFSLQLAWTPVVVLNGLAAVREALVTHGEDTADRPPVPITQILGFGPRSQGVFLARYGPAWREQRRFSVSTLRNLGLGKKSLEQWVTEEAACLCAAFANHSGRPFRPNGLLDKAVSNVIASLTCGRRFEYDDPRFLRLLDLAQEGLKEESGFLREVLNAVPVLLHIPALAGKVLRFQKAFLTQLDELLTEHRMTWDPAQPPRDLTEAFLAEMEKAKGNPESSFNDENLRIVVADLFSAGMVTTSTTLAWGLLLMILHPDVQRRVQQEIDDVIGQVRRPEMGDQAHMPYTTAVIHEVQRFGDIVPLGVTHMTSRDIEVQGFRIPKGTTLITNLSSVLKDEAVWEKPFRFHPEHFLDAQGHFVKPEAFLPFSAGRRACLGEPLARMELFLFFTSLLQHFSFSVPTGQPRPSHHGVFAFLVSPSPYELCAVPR

For `Cc1c(OCC(F)(F)F)ccnc1C[S+]([O-])c1nc2ccccc2[nH]1` (stereo not given) [LANSOPRAZOLE], the IC50 in assay [1] is 0.434 µM (active). In addition, the half-maximal activity concentration (AC50) on Cytochrome P450 2D6 is 12.6 µM (inconclusive).

With `O=c1c2cc(Br)ccc2nc(-c2ccc([N+](=O)[O-])cc2)n1O`, the EC50 was > 150 µM (inactive) in assay [2], 0.585 µM (active) in [3], 3.07 µM (active) in assay [4] and 2.56 µM (active) in assay [9]. Besides, the IC50 in assay [5] is 4.91 µM (active); in “cells” it was 11.9 µM (active). In addition, the figures for the CC50 in assay [6], in [7] and in assay [8] were 20.3 µM (active), 19.9 µM (active) and 18.4 µM (active), respectively.

On to `Fc1cccc(NC(=S)Nc2cccnc2)c1`, for which the EC50 in [10] was 41.9 µM (active). Moreover, the IC50 in assay [11] and in assay [12] was > 66 µM (inactive) throughout.

For `CCOc1ccccc1C1CC(=O)Nc2cc3c(cc21)OCCO3` (stereo not given), the concentration giving a half-maximal response (EC50) in the assay on BJ [13] is 1.23 µM (active); in the assay with BJ [14], 22.3 µM (active); in the assay with BJ [15] it was 0.814 µM (inconclusive); in assay [16], 0.829 µM (active). For the same compound, the IC50 in the assay on J774.A1 is > 25 µM (inactive); in assay [17], > 80 µM (inactive).
